# Source: patent publication US10760110B2, “Antibiotic testing and screening system” (priority 2017, dated 2020)
# Where two headings read alike, the source gives them in different places.
# Assays:
# [1] = tested on: A. baumannii KW1 strains with β-lactamase plasmids; assay: Etest MIC of β-lactams, extended-spectrum β-lactamase, AmpC β-lactamase or carbapenemase (Table 18); format: cell-based, Acinetobacter baumannii
# Description: (§1) DNA fragments of the resistance genes along with their flanking regions were amplified from clinical plasmids via PCR with specific primer pairs. The resulting PCR fragments were digested and then cloned into the plasmid pYMAb5 or pYMAb5Tc. The resulting plasmids were then transformed into A. baumannii KW1 via electroporation.
# (§2) The MICs of antibiotics were determined using the Etest (Biodisk AB, Sweden) according to the manufacturer's instructions. The MICs from the Etest, which fall between standard two-fold dilutions, were rounded up to the next highest two-fold value. The MICs of ceftazidime and cefotaxime against K. pneumoniae NVT1001 harbouring the pACYC177 plasmid with blaOXA-48 were further determined using a broth microdilution test according to the recommendations of the CLSI,^25 and the results were interpreted according to the breakpoints established by the CLSI in 2017.^25 Meanwhile, due to the lack of CLSI breakpoints in 2016 and 2017, the results for cephalothin were interpreted according to the breakpoints established by the CLSI in 2015,^26 and the results for moxifloxacin were interpreted according to the breakpoints established by the EUCAST in 2017.^27
# [2] = tested on: A. baumannii KW1 strains with aminoglycoside resistance plasmids; assay: Etest MIC of aminoglycosides, aminoglycoside-modifying enzyme or 16S rRNA methylase (Table 19); format: cell-based, Acinetobacter baumannii; conditions: production of aminoglycoside-modifying enzymes
# Description: as §1, §2
# [3] = tested on: K. pneumoniae NVT1001 and its ΔompK35/36 and/or ΔramR mutants; assay: Etest MIC, OmpK35/36 loss and AcrAB-TolC overexpression (ΔramR) strains (Table 6); format: cell-based, Klebsiella pneumoniae; conditions: Klebsiella pneumoniae
# Description: as §2
# [4] = tested on: K. pneumoniae NVT1001 ΔramRΔompK35/36 mutant and its revertants; assay: Etest MIC, ΔramRΔompK35/36 mutant and its revertants (Table 7); format: cell-based; conditions: Klebsiella pneumoniae
# Description: The allelic-exchange method was used to restore the wild-type gene in the K. pneumoniae NVT1001 mutants with constructed chromosome-mediated resistance mechanisms, as described by Tsai et al.^19 Briefly, a DNA fragment of the entire wild-type gene sequence along with flanking regions was amplified from K. pneumoniae NVT1001 using PCR with specific primers. The resulting PCR fragment was digested and then cloned into pUT-KB. For homologous recombination, this plasmid was transformed into E. coli S17-1 λpir^23 via electroporation and mobilized into the K. pneumoniae NVT1001 mutant via conjugation. […] After incubation in 20 mL BHI broth for 6 hours at 37° C. in the absence of kanamycin, the fully grown cultures were spread onto LB agar plates supplemented with 10% sucrose. After the double crossover occurred, the sucrose-resistant and kanamycin-susceptible colonies were selected, and the restoration of the wild-type gene was confirmed via DNA sequencing.
# as §2
# [5] = tested on: K. pneumoniae NVT1001 strains with Sul/Dfr plasmids; assay: Etest MIC of folate pathway inhibitors, OmpK35/36 loss, ΔramR and/or drug-resistant target enzyme (Table 15); format: cell-based, Klebsiella pneumoniae; conditions: for MIC: Klebsiella pneumoniae
# Description: DNA fragments of the resistance genes along with their flanking regions were amplified from clinical plasmids via PCR with specific primer pairs. The resulting PCR fragments were digested and then cloned into the plasmid pACYC177 or pACYC184. The resulting plasmids were then transformed into K. pneumoniae strain NVT1001 via electroporation. The recombinant bacteria were plated onto LB agar plates containing kanamycin (50 mg/L) or chloramphenicol (50 mg/L), and the presence of the cloned gene was confirmed via PCR and DNA sequencing.
# as §2
# [6] = ΔramRΔ35/36, ΔramRΔompK35/36 mutant
smiles,measurement,setting,value
C[C@@H](O)[C@H]1C(=O)N2C(C(=O)O)=C(S[C@@H]3CN[C@H](C(=O)N(C)C)C3)[C@H](C)[C@H]12 [MP],MIC,"[1]; KW1, no supplemental plasmid",0.5 µg/mL
same,MIC,[1]; KW1 with ADC-30 on pYMAb5,3 µg/mL
same,MIC,[1]; KW1 with CTX-M-15 on pYMAb5,2 µg/mL
same,MIC,[1]; KW1 with IMP-1 on pYMAb5,12 µg/mL
same,MIC,[1]; KW1 with NDM-1 on pYMAb5,>32 µg/mL
same,MIC,[1]; KW1 with OXA-23 on pYMAb5,>32 µg/mL
same,MIC,[1]; KW1 with OXA-58 on pYMAb5,6 µg/mL
same,MIC,[1]; KW1 with OXA-66 on pYMAb5,8 µg/mL
same,MIC,[1]; KW1 with OXA-72 on pYMAb5,>32 µg/mL
same,MIC,[1]; KW1 with VEB-3 on pYMAb5,0.5 µg/mL
same,MIC,[1]; KW1 with VIM-1 on pYMAb5,>32 µg/mL
same,MIC,[1]; KW1 with shuttle vector pYMAb5,0.5 µg/mL
CCN[C@@H]1C[C@H](N)[C@@H](O[C@H]2OC(CN)=CC[C@H]2N)[C@H](O)[C@H]1O[C@H]1OC[C@](C)(O)[C@H](NC)[C@H]1O [Netilmicin],effects on the MIC,[2],no increase effects
same,MIC,"[3]; WT, NVT1001, read-out: MIC",0.5 µg/mL
same,MIC,"[3]; Δ35, ΔompK35 mutant",0.5 µg/mL
same,MIC,"[3]; Δ35/36, ΔompK35/36 mutant",0.5 µg/mL
same,MIC,"[3]; Δ36, ΔompK36 mutant",0.5 µg/mL
same,MIC,[3]; ΔramR mutant,0.5 µg/mL
same,MIC,"[3]; ΔramRΔ35, ΔramRΔompK35 mutant",0.25 µg/mL
same,MIC,[3]; [6],0.5 µg/mL
same,MIC,"[3]; ΔramRΔ36, ΔramRΔompK36 mutant",0.5 µg/mL
CCN1CCN(C(=O)N[C@@H](C(=O)N[C@@H]2C(=O)N3[C@@H]2SC(C)(C)[C@@H]3C(=O)O)c2ccccc2)C(=O)C1=O [PP],MIC,"[1]; KW1, no supplemental plasmid",12 µg/mL
same,MIC,[1]; KW1 with ADC-30 on pYMAb5,>256 µg/mL
same,MIC,[1]; KW1 with CTX-M-15 on pYMAb5,>256 µg/mL
same,MIC,[1]; KW1 with IMP-1 on pYMAb5,16 µg/mL
same,MIC,[1]; KW1 with NDM-1 on pYMAb5,>256 µg/mL
same,MIC,[1]; KW1 with OXA-23 on pYMAb5,>256 µg/mL
same,MIC,[1]; KW1 with OXA-58 on pYMAb5,128 µg/mL
same,MIC,[1]; KW1 with OXA-66 on pYMAb5,64 µg/mL
same,MIC,[1]; KW1 with OXA-72 on pYMAb5,>256 µg/mL
same,MIC,[1]; KW1 with VEB-3 on pYMAb5,12 µg/mL
same,MIC,[1]; KW1 with VIM-1 on pYMAb5,>256 µg/mL
same,MIC,[1]; KW1 with shuttle vector pYMAb5,12 µg/mL
COc1cc(Cc2cnc(N)nc2N)cc(OC)c1OC [Trimethoprim],MIC,[4]; ΔramRΔompK35/36::ompK35/36 revertant,8 µg/mL
same,MIC,[4]; ΔramRΔompK35/36::ompK35 revertant,8 µg/mL
same,MIC,[4]; ΔramRΔompK35/36::ompK36 revertant,8 µg/mL
same,MIC,[4]; ΔramRΔompK35/36::ramR revertant,2 µg/mL
same,MIC,[4]; ΔramRΔompK35/36::ramR::ompK35/36 revertant,2 µg/mL
same,MIC,[4]; ΔramRΔompK35/36::ramR::ompK35 revertant,2 µg/mL
same,MIC,[4]; ΔramRΔompK35/36::ramR::ompK36 revertant,2 µg/mL
same,MIC,[4]; ΔramRΔompK35/36 mutant,> 32 µg/mL
same,MIC,"[5]; DfrA1 on pACYC177, WT (NVT1001), read-out: MIC",> 32 µg/mL
same,MIC,"[5]; DfrA1 on pACYC177, ΔompK35/36 mutant",> 32 µg/mL
same,MIC,"[5]; DfrA1 on pACYC177, ΔompK35 mutant",> 32 µg/mL
same,MIC,"[5]; DfrA1 on pACYC177, ΔompK36 mutant",> 32 µg/mL
same,MIC,"[5]; DfrA1 on pACYC177, ΔramR mutant",> 32 µg/mL
same,MIC,"[5]; DfrA1 on pACYC177, ΔramRΔompK35/36 mutant",> 32 µg/mL
same,MIC,"[5]; DfrA1 on pACYC177, ΔramRΔompK35 mutant",> 32 µg/mL
same,MIC,"[5]; DfrA1 on pACYC177, ΔramRΔompK36 mutant",> 32 µg/mL
same,MIC,"[5]; DfrA16 on pACYC177, WT (NVT1001), read-out: MIC",> 32 µg/mL
same,MIC,"[5]; DfrA16 on pACYC177, ΔompK35/36 mutant",> 32 µg/mL
same,MIC,"[5]; DfrA16 on pACYC177, ΔompK35 mutant",> 32 µg/mL
same,MIC,"[5]; DfrA16 on pACYC177, ΔompK36 mutant",> 32 µg/mL
same,MIC,"[5]; DfrA16 on pACYC177, ΔramR mutant",> 32 µg/mL
same,MIC,"[5]; DfrA16 on pACYC177, ΔramRΔompK35/36 mutant",> 32 µg/mL
same,MIC,"[5]; DfrA16 on pACYC177, ΔramRΔompK35 mutant",> 32 µg/mL
same,MIC,"[5]; DfrA16 on pACYC177, ΔramRΔompK36 mutant",> 32 µg/mL
same,MIC,"[5]; Sul1 on pACYC177, WT (NVT1001), read-out: MIC",2 µg/mL
same,MIC,"[5]; Sul1 on pACYC177, ΔompK35/36 mutant",4 µg/mL
same,MIC,"[5]; Sul1 on pACYC177, ΔompK35 mutant",2 µg/mL
same,MIC,"[5]; Sul1 on pACYC177, ΔompK36 mutant",2 µg/mL
same,MIC,"[5]; Sul1 on pACYC177, ΔramR mutant",16 µg/mL
same,MIC,"[5]; Sul1 on pACYC177, ΔramRΔompK35/36 mutant",> 32 µg/mL
same,MIC,"[5]; Sul1 on pACYC177, ΔramRΔompK35 mutant",32 µg/mL
same,MIC,"[5]; Sul1 on pACYC177, ΔramRΔompK36 mutant",> 32 µg/mL
same,MIC,"[5]; Sul2 on pACYC177, WT (NVT1001), read-out: MIC",2 µg/mL
same,MIC,"[5]; Sul2 on pACYC177, ΔompK35/36 mutant",4 µg/mL
same,MIC,"[5]; Sul2 on pACYC177, ΔompK35 mutant",4 µg/mL
same,MIC,"[5]; Sul2 on pACYC177, ΔompK36 mutant",4 µg/mL
same,MIC,"[5]; Sul2 on pACYC177, ΔramR mutant",16 µg/mL
same,MIC,"[5]; Sul2 on pACYC177, ΔramRΔompK35/36 mutant",> 32 µg/mL
same,MIC,"[5]; Sul2 on pACYC177, ΔramRΔompK35 mutant",32 µg/mL
same,MIC,"[5]; Sul2 on pACYC177, ΔramRΔompK36 mutant",32 µg/mL
same,MIC,"[5]; no supplemental plasmid, WT (NVT1001), read-out: MIC",2 µg/mL
same,MIC,"[5]; no supplemental plasmid, ΔompK35/36 mutant",2 µg/mL
same,MIC,"[5]; no supplemental plasmid, ΔompK35 mutant",2 µg/mL
same,MIC,"[5]; no supplemental plasmid, ΔompK36 mutant",2 µg/mL
same,MIC,"[5]; no supplemental plasmid, ΔramR mutant",8 µg/mL
same,MIC,"[5]; no supplemental plasmid, ΔramRΔompK35/36 mutant",> 32 µg/mL
same,MIC,"[5]; no supplemental plasmid, ΔramRΔompK35 mutant",8 µg/mL
same,MIC,"[5]; no supplemental plasmid, ΔramRΔompK36 mutant",16 µg/mL
same,effects on the MIC,[5]; strains with porin loss and/or Sul production,no significant (≥4-fold) effects
same,MIC,"[3]; WT, NVT1001, read-out: MIC",2 µg/mL
same,MIC,"[3]; Δ35, ΔompK35 mutant",2 µg/mL
same,MIC,"[3]; Δ35/36, ΔompK35/36 mutant",2 µg/mL
same,MIC,"[3]; Δ36, ΔompK36 mutant",2 µg/mL
same,MIC,[3]; ΔramR mutant,8 µg/mL
same,MIC,"[3]; ΔramRΔ35, ΔramRΔompK35 mutant",8 µg/mL
same,MIC,[3]; [6],> 32 µg/mL
same,MIC,"[3]; ΔramRΔ36, ΔramRΔompK36 mutant",16 µg/mL
